pIC50: −log10 of the molar value. Converted amounts (≈) assume the structure as drawn. *1 amine or outer side, *2 acyl side, *3 side chain or, on linkers, in order; H or OH if unused. Where a SMILES comes first, the peptide text is derived from it. Bridges are numbered along the chain shown (N, C = ends). [ ]: non-standard residue; d: D form. The star is where a group is joined. hTyr(3S-OH,4S-OH,3'-OSO3H) = N[C@H](C(=O)O)[C@H](O)[C@@H](O)c1ccc(O)c(OS(=O)(=O)O)c1; Orn(4R-OH,5R-OH) = O=C([C@H](C[C@@H](O)[C@@H](O)N[*:3])N[*:1])[*:2]; Pro(3S-OH,4S-Me) = C[C@H]1CN[C@H](C(=O)O)[C@H]1O; X1 = CCCCCOc1ccc(-c2cc(-c3ccc(C(=O)*)cc3)no2)cc1; Gln(3R-OH) = NC(=O)C[C@@H](O)[C@H](N)C(=O)O; Hyp = O=C(O)[C@@H]1C[C@@H](O)CN1
Legend:
Aspergillus flavus [1] = test: Antifungal activity against Aspergillus flavus ATCC 16870 assessed as inhibition of growth incubated for 24 hrs by two-fold serial dilution method; type: functional
Candida albicans [2] = test: Antifungal activity against Candida albicans ATCC 76615 assessed as inhibition of growth incubated for 24 hrs by two-fold serial dilution method; type: functional
Candida tropicalis = test: Inhibition of chitin synthase extracted from Candida tropicalis ATCC 750 using UDP-GlcNAc as substrate assessed as inhibition rate at 300 ug/ml by TMB based microplate analyzer relative to control; settings: dose 300.0 µg/ml
[3] = Inhibition of chitin synthase extracted from Candida tropicalis ATCC 750 using UDP-GlcNAc as substrate assessed as inhibition rate by TMB based microplate analyzer relative to control
Aspergillus fumigatus [4] = test: Antifungal activity against Aspergillus fumigatus GIMCC 3.19 assessed as inhibition of growth incubated for 24 hrs by two-fold serial dilution method; type: functional
Cryptococcus neoformans [5] = test: Antifungal activity against Cryptococcus neoformans ATCC 32719 assessed as inhibition of growth incubated for 24 hrs by two-fold serial dilution method; type: functional
Aspergillus fumigatus [6] = test: Antifungal activity against fluconazole-resistant Aspergillus fumigatus GIMCC 3.19 assessed as inhibition of fungal growth incubated for 24 to 72 hrs; type: functional; settings: time 24-72 hrs
Candida albicans [7] = test: Antifungal activity against Candida albicans ATCC 76615 incubated for 24 hrs by half broth dilution based checkerboard method; type: functional
Cryptococcus neoformans [8] = test: Antifungal activity against Cryptococcus neoformans ATCC 32719 incubated for 24 hrs by half broth dilution based checkerboard method; type: functional
Aspergillus flavus [9] = test: Antifungal activity against Aspergillus flavus ATCC 16870 incubated for 24 hrs by half broth dilution based checkerboard method; type: functional
Cryptococcus neoformans [10] = test: Antifungal activity against fluconazole-resistant Cryptococcus neoformans ATCC 32719 assessed as inhibition of fungal growth incubated for 24 to 72 hrs; type: functional; settings: time 24-72 hrs
Aspergillus flavus [11] = test: Antifungal activity against fluconazole-resistant Aspergillus flavus ATCC 16870 assessed as inhibition of fungal growth incubated for 24 to 72 hrs; type: functional; settings: time 24-72 hrs
Aspergillus fumigatus [12] = test: Antifungal activity against Aspergillus fumigatus GIMCC 3.19 incubated for 24 hrs by half broth dilution based checkerboard method; type: functional
Candida albicans [13] = test: Antifungal activity against fluconazole-resistant Candida albicans ATCC 76615 assessed as inhibition of fungal growth incubated for 24 to 72 hrs; type: functional; settings: time 24-72 hrs
Candida albicans [14] = test: Antifungal activity against micafungin-resistant Candida albicans ATCC 76615 assessed as inhibition of fungal growth incubated for 24 to 72 hrs; type: functional; settings: time 24-72 hrs

| Compound | MIC (Aspergillus flavus [1]) [µg/mL] | MIC (Candida albicans [2]) [µg/mL] | inhibition (Candida tropicalis) [%] | pIC50 [3] | MIC (Aspergillus fumigatus [4]) [µg/mL] | MIC (Cryptococcus neoformans [5]) [µg/mL] | MIC (Aspergillus fumigatus [6]) [µg/mL] | MIC (Candida albicans [7]) [µg/mL] | MIC (Cryptococcus neoformans [8]) [µg/mL] | MIC (Aspergillus flavus [9]) [µg/mL] | MIC (Cryptococcus neoformans [10]) [µg/mL] | MIC (Aspergillus flavus [11]) [µg/mL] | MIC (Aspergillus fumigatus [12]) [µg/mL] | MIC (Candida albicans [13]) [µg/mL] | MIC (Candida albicans [14]) [µg/mL] |
| --- | --- | --- | --- | --- | --- | --- | --- | --- | --- | --- | --- | --- | --- | --- | --- |
| Cc1ccc(NC(=O)C2CCN(CC(=O)Nc3ccc4c(c3)NC(=O)C3(CCNC3=O)C4)CC2)cc1 (racemic) | 64 (≈ 131 µM) | 32 (≈ 65.4 µM) | 45.1 | 3.54 | 128 (≈ 261 µM) | 32 (≈ 65.4 µM) |  |  |  |  |  |  |  |  |  |
| CCCNC(=O)C1CCN(CC(=O)Nc2ccc3c(c2)NC(=O)C2(CCNC2=O)C3)CC1 (racemic) | 128 (≈ 290 µM) | 128 (≈ 290 µM) | 22.5 |  | 256 (≈ 580 µM) | 512 (≈ 1160 µM) |  |  |  |  |  |  |  |  |  |
| O=C(CN1CCC(C(=O)Nc2nccs2)CC1)Nc1ccc2c(c1)NC(=O)C1(CCNC1=O)C2 (racemic) | 32 (≈ 66.3 µM) | 8 (≈ 16.6 µM) | 73.9 | 3.80 | 256 (≈ 530 µM) | 512 (≈ 1060 µM) |  |  |  |  |  |  |  |  |  |
| COc1ccc(NC(=O)/C=C/C(=O)Nc2ccc3c(c2)NC(=O)C2(CCNC2=O)C3)cc1 (racemic) | 32 (≈ 73.7 µM) | 64 (≈ 147 µM) | 49.3 |  | 64 (≈ 147 µM) | 32 (≈ 73.7 µM) |  |  |  |  |  |  |  |  |  |
| O=C(CN1CCC(C(=O)Nc2ccc(Cl)cc2)CC1)Nc1ccc2c(c1)NC(=O)C1(CCNC1=O)C2 (racemic) | 16 (≈ 31.4 µM) | 64 (≈ 125 µM) | 41.3 | 3.78 | 16 (≈ 31.4 µM) | 32 (≈ 62.7 µM) |  |  |  |  |  |  |  |  |  |
| O=C(/C=C/C(=O)Nc1ccc2c(c1)NC(=O)C1(CCNC1=O)C2)Nc1ccc(Cl)cc1 (racemic) | 32 (≈ 72.9 µM) | 32 (≈ 72.9 µM) | 56.3 | 3.30 | 32 (≈ 72.9 µM) | 64 (≈ 146 µM) |  |  |  |  |  |  |  |  |  |
| CC(C)NC(=O)/C=C/C(=O)Nc1ccc2c(c1)NC(=O)C1(CCNC1=O)C2 (racemic) | 256 (≈ 691 µM) | 128 (≈ 346 µM) | 34.6 |  | 64 (≈ 173 µM) | 128 (≈ 346 µM) |  |  |  |  |  |  |  |  |  |
| Cc1ccc(NC(=O)C2CCN(CC(=O)Nc3ccc4c(c3)NC(=O)C3(CCNC3=O)C4)CC2)cc1C (racemic) | 32 (≈ 63.5 µM) | 32 (≈ 63.5 µM) | 42.3 |  | 64 (≈ 127 µM) | 64 (≈ 127 µM) |  |  |  |  |  |  |  |  |  |
| O=C(CN1CCC(C(=O)Nc2ccccc2)CC1)Nc1ccc2c(c1)NC(=O)C1(CCNC1=O)C2 (racemic) | 32 (≈ 67.3 µM) | 64 (≈ 135 µM) | 35.8 |  | 128 (≈ 269 µM) | 64 (≈ 135 µM) |  |  |  |  |  |  |  |  |  |
| O=C(/C=C/C(=O)Nc1ccc2c(c1)NC(=O)C1(CCNC1=O)C2)Nc1ccc(F)c(Cl)c1 (racemic) | 64 (≈ 140 µM) | 32 (≈ 70 µM) | 48.7 |  | 128 (≈ 280 µM) | 32 (≈ 70 µM) |  |  |  |  |  |  |  |  |  |
| CCCNC(=O)/C=C/C(=O)Nc1ccc2c(c1)NC(=O)C1(CCNC1=O)C2 (racemic) | 128 (≈ 346 µM) | 128 (≈ 346 µM) | 36.9 |  | 64 (≈ 173 µM) | 128 (≈ 346 µM) |  |  |  |  |  |  |  |  |  |
| CCCN(CCC)C(=O)/C=C/C(=O)Nc1ccc2c(c1)NC(=O)C1(CCNC1=O)C2 (racemic) | 128 (≈ 310 µM) | 128 (≈ 310 µM) | 26.3 |  | 256 (≈ 621 µM) | 128 (≈ 310 µM) |  |  |  |  |  |  |  |  |  |
| COc1ccc(NC(=O)C2CCN(CC(=O)Nc3ccc4c(c3)NC(=O)C3(CCNC3=O)C4)CC2)cc1 (racemic) | 32 (≈ 63.3 µM) | 128 (≈ 253 µM) | 75.9 |  | 64 (≈ 127 µM) | 64 (≈ 127 µM) |  |  |  |  |  |  |  |  |  |
| O=C(/C=C/C(=O)Nc1ccc2c(c1)NC(=O)C1(CCNC1=O)C2)Nc1ccc(F)cc1 (racemic) | 32 (≈ 75.8 µM) | 128 (≈ 303 µM) | 46.8 |  | 64 (≈ 152 µM) | 32 (≈ 75.8 µM) |  |  |  |  |  |  |  |  |  |
| O=C(/C=C/C(=O)Nc1nccs1)Nc1ccc2c(c1)NC(=O)C1(CCNC1=O)C2 (racemic) | 64 (≈ 156 µM) | 64 (≈ 156 µM) | 55.8 | 3.36 | 32 (≈ 77.8 µM) | 32 (≈ 77.8 µM) |  |  |  |  |  |  |  |  |  |
| O=C(/C=C/C(=O)Nc1ccc2c(c1)NC(=O)C1(CCNC1=O)C2)NCc1ccccc1 (racemic) | 16 (≈ 38.2 µM) | 32 (≈ 76.5 µM) | 49.5 |  | 64 (≈ 153 µM) | 16 (≈ 38.2 µM) |  |  |  |  |  |  |  |  |  |
| O=C(CN1CCC(C(=O)Nc2nc3ccccc3s2)CC1)Nc1ccc2c(c1)NC(=O)C1(CCNC1=O)C2 (racemic) | 32 (≈ 60.1 µM) | 64 (≈ 120 µM) | 57.7 | 3.42 | 32 (≈ 60.1 µM) | 16 (≈ 30 µM) |  |  |  |  |  |  |  |  |  |
| CCCCN(CCCC)C(=O)/C=C/C(=O)Nc1ccc2c(c1)NC(=O)C1(CCNC1=O)C2 (racemic) | 256 (≈ 581 µM) | 256 (≈ 581 µM) | 28.2 |  | 256 (≈ 581 µM) | 128 (≈ 291 µM) |  |  |  |  |  |  |  |  |  |
| CCCCNC(=O)/C=C/C(=O)Nc1ccc2c(c1)NC(=O)C1(CCNC1=O)C2 (racemic) | 64 (≈ 166 µM) | 128 (≈ 333 µM) | 35.7 |  | 256 (≈ 666 µM) | 128 (≈ 333 µM) |  |  |  |  |  |  |  |  |  |
| O=C(/C=C/C(=O)Nc1ccc2c(c1)NC(=O)C1(CCNC1=O)C2)Nc1ccccc1 (racemic) | 64 (≈ 158 µM) | 64 (≈ 158 µM) | 39.6 |  | 32 (≈ 79.1 µM) | 128 (≈ 316 µM) |  |  |  |  |  |  |  |  |  |
| CCCCNC(=O)C1CCN(CC(=O)Nc2ccc3c(c2)NC(=O)C2(CCNC2=O)C3)CC1 (racemic) | 64 (≈ 140 µM) | 256 (≈ 562 µM) | 18.2 |  | 256 (≈ 562 µM) | 128 (≈ 281 µM) |  |  |  |  |  |  |  |  |  |
| COc1ccccc1NC(=O)C1CCN(CC(=O)Nc2ccc3c(c2)NC(=O)C2(CCNC2=O)C3)CC1 (racemic) | 32 (≈ 63.3 µM) | 64 (≈ 127 µM) | 39.7 |  | 128 (≈ 253 µM) | 32 (≈ 63.3 µM) |  |  |  |  |  |  |  |  |  |
| O=C(CN1CCC(C(=O)Nc2ccc(F)cc2)CC1)Nc1ccc2c(c1)NC(=O)C1(CCNC1=O)C2 (racemic) | 32 (≈ 64.8 µM) | 128 (≈ 259 µM) | 79.7 |  | 64 (≈ 130 µM) | 128 (≈ 259 µM) |  |  |  |  |  |  |  |  |  |
| CCCCCCNC(=O)C1CCN(CC(=O)Nc2ccc3c(c2)NC(=O)C2(CCNC2=O)C3)CC1 (racemic) | 256 (≈ 529 µM) | 128 (≈ 265 µM) | 24 |  | 128 (≈ 265 µM) | 256 (≈ 529 µM) |  |  |  |  |  |  |  |  |  |
| O=C(/C=C/C(=O)Nc1ccccc1Br)Nc1ccc2c(c1)NC(=O)C1(CCNC1=O)C2 (racemic) | 32 (≈ 66.2 µM) | 32 (≈ 66.2 µM) | 66.2 | 3.58 | 32 (≈ 66.2 µM) | 16 (≈ 33.1 µM) |  |  |  |  |  |  |  |  |  |
| CCCCCNC(=O)/C=C/C(=O)Nc1ccc2c(c1)NC(=O)C1(CCNC1=O)C2 (racemic) | 128 (≈ 321 µM) | 256 (≈ 642 µM) | 37.9 |  | 128 (≈ 321 µM) | 256 (≈ 642 µM) |  |  |  |  |  |  |  |  |  |
| OC(Cn1cncn1)(Cn1cncn1)c1ccc(F)cc1F [FLUCONAZOLE] | 4 (≈ 13.1 µM) | 8 (≈ 26.1 µM) |  |  | 4 (≈ 13.1 µM) | 8 (≈ 26.1 µM) | 256 (≈ 836 µM) | 8 | 8 | 4 | 256 (≈ 836 µM) | 256 (≈ 836 µM) | 4 | 256 (≈ 836 µM) |  |
| CCCCCOc1ccc(-c2cc(-c3ccc(C(=O)N[C@H]4C[C@@H](O)[C@@H](O)NC(=O)[C@@H]5[C@@H](O)[C@@H](C)CN5C(=O)[C@H]([C@H](O)CC(N)=O)NC(=O)[C@H]([C@H](O)[C@@H](O)c5ccc(O)c(OS(=O)(=O)O)c5)NC(=O)[C@@H]5C[C@@H](O)CN5C(=O)[C@H]([C@@H](C)O)NC4=O)cc3)no2)cc1 [MICAFUNGIN] (X1-[Orn(4R-OH,5R-OH)]T[Hyp][hTyr(3S-OH,4S-OH,3'-OSO3H)][Gln(3R-OH)][Pro(3S-OH,4S-Me)]; lactam 1-C) |  |  |  |  |  |  |  |  |  |  |  |  |  |  | 256 (≈ 202 µM) |

— ChEMBL document CHEMBL6127079, “Design and synthesis of spiro[pyrrolidine-3,3'-quinoline]-2,2'-dione derivatives as novel antifungal agents targeting chitin synthase” (Eur J Med Chem, 2024)
